Laboratory results published in US9688675B2, “1,7-naphthyridine derivatives” (Hoffmann-La Roche Inc., priority 2013, dated 2017).

The compounds below were run on human embryonic stem cell derived neural stem cells (NSCs) (assay: Neural Stem Cell Proliferation Assay (Neurogenesis Assay, ATP levels by CellTiterGlo)). Conditions: 96 h, compound concentration at which 150% activity of control (100%) is reached, NSC proliferation, 4 days incubation.
Format: cell-based
Experimental: Neural Stem Cell Proliferation Assay
Neurogenic properties of small molecules are determined based on the proliferation of human embryonic stem cell derived neural stem cells (NSCs) which were derived via a dual smad inhibition as previously described (Chambers, S. M., et al., Highly efficient neural conversion of human ES and iPS cells by dual inhibition of SMAD signaling, Nature biotechnology, 2009. 27(3): p. 275-80.)
Compounds respond is measured by the increase in cells based on ATP levels
(Promega:CellTiterGlo®) after an incubation period of 4 days.
NSCs are thawed and expanded over 3 passages. On the 14th day, NSCs are seeded in Polyornithin/Laminin coated 384 well plates at a cell density of 21′000 cells/cm^2 in a media volume of 38 μl.
4 hours after cell seeding, compound solutions are added at a volume of 2 μl. Stock solutions of the compounds (water, 5% DMSO) are diluted to obtain a dose response (11 points, dilution factor is 2), ranging from 8 μM to 8 nM. Controls are run to consistently determine the neurogenic properties of the cells:
Negative (neutral) control is cell culture Media (final DMSO concentration: 0.25%).
Positive controls are: • 1. cell culture Media+100 ng/ml FGF2 (final DMSO concentration: 0.1%) • 2. cell culture Media+20 ng/ml EGF (final DMSO concentration: 0.1%) • 3. cell culture Media+100 ng/ml Wnt3a (final DMSO concentration: 0.1%)
After 4 days incubation at 37° C., 5% CO2, the amount of ATP per well is quantified. The ATP concentration is proportional to the cell number. ATP is quantified by using the Promega CellTiterGlo® kit. The CellTiterGlo® reagents contain a cell lysis buffer, a thermo stable luciferase (UltraGlo™ recombinant luciferase), magnesium and luciferin. Luciferin reacts with ATP producing oxyluciferin, AMP and light. The luminescence signal is proportional to the ATP content.
The value of negative (neutral) control is determined for each assay plate by taking the average of 16 negative control wells. The neurogenic compound response is calculated for each compound as (compound/Negative Control)*100.
The values of EC150 from the dose response curve are determined for each test compound. The EC150 is the compound concentration at which 150% activity of control (100%) is reached.

Question: CS(=O)(=O)c1ccc(CNC(=O)c2cnc3cncc(-c4ccc(Cl)cc4)c3c2)cc1 [Example 18, 5-(4-Chlorophenyl)-N-(4-(methylsulfonyl)benzyl)-1,7-naphthyridine-3-carboxamide] was tested. Which EC (150% of control) did it give?
Answer: 0.25 µM

Question: Cc1nc2cncc(-c3ccc(Cl)cc3)c2cc1C(N)=O [Example 11, 5-(4-Chlorophenyl)-2-methyl-1,7-naphthyridine-3-carboxamide] was tested. Which EC (150% of control) did it give?
Answer: 0.12 µM

Question: Which EC (150% of control) does the source give for O=C(NCC(F)(F)F)c1cnc2cncc(-c3ccc(F)cc3)c2c1 [Example 17, 5-(4-Fluorophenyl)-N-(2,2,2-trifluoroethyl)-1,7-naphthyridine-3-carboxamide] here?
Answer: 1.13 µM

Question: NC(=O)c1cnc2cncc(-c3ccc(OC(F)(F)F)cc3)c2c1 [Example 2, 5-(4-(Trifluoromethoxy)phenyl)-1,7-naphthyridine-3-carboxamide] was tested. Which EC (150% of control) did it give?
Answer: 0.47 µM

Question: Which EC (150% of control) does the source give for NC(=O)c1cnc2cncc(-c3ccc(F)c(F)c3)c2c1 [Example 6, 5-(3,4-Difluorophenyl)-1,7-naphthyridine-3-carboxamide] here?
Answer: 0.55 µM

Question: With NC(=O)c1cnc2cncc(N3CCC(F)(F)CC3)c2c1 [Example 26, 5-(4,4-Difluoropiperidin-1-yl)-1,7-naphthyridine-3-carboxamide] as the compound, how does the EC (150% of control) read?
Answer: 2.09 µM

Question: With O=C(NCC1CC1)c1cnc2cncc(-c3ccc(Cl)cc3)c2c1 [Example 20, 5-(4-Chlorophenyl)-N-(cyclopropylmethyl)-1,7-naphthyridine-3-carboxamide] as the compound, how does the EC (150% of control) read?
Answer: 4.24 µM

Question: With O=C(NCC(F)(F)F)c1cnc2cncc(-c3ccc(F)cc3F)c2c1 [Example 15, 5-(2,4-Difluorophenyl)-N-(2,2,2-trifluoroethyl)-1,7-naphthyridine-3-carboxamide] as the compound, how does the EC (150% of control) read?
Answer: 1.36 µM

Question: Which EC (150% of control) does the source give for NC(=O)c1cnc2cncc(-c3ccc(Cl)cc3Cl)c2c1 [Example 28, 5-(2,4-Dichlorophenyl)-1,7-naphthyridine-3-carboxamide] here?
Answer: 0.46 µM

Question: How did the EC (150% of control) turn out when O=C(NCC(F)(F)F)c1cnc2cncc(-c3ccccc3F)c2c1 [Example 14, 5-(2-Fluorophenyl)-N-(2,2,2-trifluoroethyl)-1,7-naphthyridine-3-carboxamide] was run?
Answer: 1.21 µM

Question: For NC(=O)c1cnc2cncc(-c3ccc(F)cc3F)c2c1 [Example 7, 5-(2,4-Difluorophenyl)-1,7-naphthyridine-3-carboxamide], which EC (150% of control) is on record?
Answer: 0.48 µM

Question: With N#Cc1ccc(-c2cncc3ncc(C(N)=O)cc23)cc1 [Example 8, 5-(4-Cyanophenyl)-1,7-naphthyridine-3-carboxamide] as the compound, how does the EC (150% of control) read?
Answer: 1.37 µM

Question: CS(=O)(=O)CCNC(=O)c1cnc2cncc(-c3ccc(Cl)cc3F)c2c1 [Example 13, 5-(4-Chloro-2-fluorophenyl)-N-(2-(methylsulfonyl)ethyl)-1,7-naphthyridine-3-carboxamide] was tested. Which EC (150% of control) did it give?
Answer: 1.51 µM

Question: Which EC (150% of control) does the source give for COCCNC(=O)c1cnc2cncc(-c3ccc(Cl)cc3)c2c1 [Example 21, 5-(4-Chlorophenyl)-N-(2-methoxyethyl)-1,7-naphthyridine-3-carboxamide] here?
Answer: 4.6 µM

Question: COC(=O)c1cncc2ncc(C(N)=O)cc12 [Example 24, Methyl 3-carbamoyl-1,7-naphthyridine-5-carboxylate] was tested. Which EC (150% of control) did it give?
Answer: 3.2 µM

Question: CS(=O)(=O)c1cccc(CNC(=O)c2cnc3cncc(-c4ccc(Cl)cc4)c3c2)c1 [Example 19, 5-(4-Chlorophenyl)-N-(3-(methylsulfonyl)benzyl)-1,7-naphthyridine-3-carboxamide] was tested. Which EC (150% of control) did it give?
Answer: 3.18 µM

Question: How did the EC (150% of control) turn out when NC(=O)c1cnc2cncc(-c3ccc(Cl)cc3)c2c1 [Example 1, 5-(4-Chlorophenyl)-1,7-naphthyridine-3-carboxamide] was run?
Answer: 0.09 µM

Question: How did the EC (150% of control) turn out when COc1cccc(-c2cncc3ncc(C(N)=O)cc23)c1 [Example 22, 5-(3-Methoxyphenyl)-1,7-naphthyridine-3-carboxamide] was run?
Answer: 1.93 µM

Question: How did the EC (150% of control) turn out when NC(=O)c1cnc2cncc(-c3ccc(Cl)nc3)c2c1 [Example 27, 5-(6-Chloropyridin-3-yl)-1,7-naphthyridine-3-carboxamide] was run?
Answer: 1.08 µM

Question: How did the EC (150% of control) turn out when NC(=O)c1cnc2cncc(-c3ccc(F)cc3)c2c1 [Example 5, 5-(4-Fluorophenyl)-1,7-naphthyridine-3-carboxamide] was run?
Answer: 1.1 µM

Question: With NC(=O)c1cnc2cncc(-c3cc(F)c(F)c(F)c3)c2c1 [Example 4, 5-(3,4,5-Trifluorophenyl)-1,7-naphthyridine-3-carboxamide] as the compound, how does the EC (150% of control) read?
Answer: 1.9 µM

Question: For NC(=O)c1cnc2cncc(N3CCOCC3)c2c1 [Example 16, 5-Morpholino-1,7-naphthyridine-3-carboxamide], which EC (150% of control) is on record?
Answer: 1.43 µM

Question: CS(=O)(=O)c1ccc(-c2cncc3ncc(C(N)=O)cc23)cc1 [Example 9, 5-(4-(Methylsulfonyl)phenyl)-1,7-naphthyridine-3-carboxamide] was tested. Which EC (150% of control) did it give?
Answer: 1.58 µM

Question: NC(=O)c1cnc2cncc(-c3cccc(OC(F)(F)F)c3)c2c1 [Example 23, 5-(3-(Trifluoromethoxy)phenyl)-1,7-naphthyridine-3-carboxamide] was tested. Which EC (150% of control) did it give?
Answer: 5.73 µM

Question: NC(=O)c1cnc2cncc(-c3ccc(Cl)cc3F)c2c1 [Example 12, 5-(4-Chloro-2-fluorophenyl)-1,7-naphthyridine-3-carboxamide] was tested. Which EC (150% of control) did it give?
Answer: 0.07 µM

Question: Which EC (150% of control) does the source give for NC(=O)c1cnc2cncc(-c3ccccc3F)c2c1 [Example 3, 5-(2-Fluorophenyl)-1,7-naphthyridine-3-carboxamide] here?
Answer: 1.12 µM

Question: NC(=O)c1cnc2cncc(-c3ccc(C(F)(F)F)cc3)c2c1 [Example 10, 5-(4-(Trifluoromethyl)phenyl)-1,7-naphthyridine-3-carboxamide] was tested. Which EC (150% of control) did it give?
Answer: 0.3 µM

Question: For NC(=O)c1cnc2cncc(C3=CCOCC3)c2c1 [Example 25, 5-(3,6-Dihydro-2H-pyran-4-yl)-1,7-naphthyridine-3-carboxamide], which EC (150% of control) is on record?
Answer: 4.41 µM
